The results in this text go back to ChEMBL document CHEMBL1135909, “Inhibition of protein-protein association by small molecules: approaches and progress” (J Med Chem, 2002).

For one assay, the species on record is Oryctolagus cuniculus. As to the kind of experiment: Inhibition of the absorption of dentine slices by rabbit osteoclasts. The format is functional.
Assay [1] addresses T1, Proto-oncogene tyrosine-protein kinase Src (Homo sapiens, UniProt P12931). The assay can be described thus: Inhibition of Src protein tyrosine kinase.
Assay [2] can be described thus: Inhibition of Interleukin-1 alpha binding to Interleukin-1 receptor.
For assay [3], the target named is Apoptosis regulator Bcl-2 (Homo sapiens, UniProt P10415). The assay can be described thus: Inhibitory activity against Bcl-2 functioning. It is filed as functional.
Sequence of Apoptosis regulator Bcl-2 (P10415 whole entry): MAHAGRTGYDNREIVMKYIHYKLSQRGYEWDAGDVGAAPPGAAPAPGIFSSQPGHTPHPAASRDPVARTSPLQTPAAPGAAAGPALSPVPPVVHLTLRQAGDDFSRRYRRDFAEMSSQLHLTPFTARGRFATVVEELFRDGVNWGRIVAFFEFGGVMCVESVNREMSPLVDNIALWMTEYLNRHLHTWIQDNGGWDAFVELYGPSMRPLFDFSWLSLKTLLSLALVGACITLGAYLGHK
The subject of the next assay is HL-60. As to the kind of experiment: Percent cell death of cultured HL60 human leukemia cells at dose of 50 uM. The format is functional.
For a further assay, the system named is CHO. As to the kind of experiment: Inhibition of [125I]RANTES association with CCR5 expressed in CHO cells at 100 nM. The settings on record: Cricetulus griseus. It is filed as functional, cell-based.
For assay [4], the target named is Nitric oxide synthase, inducible (Homo sapiens, UniProt P35228). The assay can be described thus: Binding against the partially purified human Inducible nitric oxide synthase.
Sequence of Nitric oxide synthase, inducible (P35228 whole entry): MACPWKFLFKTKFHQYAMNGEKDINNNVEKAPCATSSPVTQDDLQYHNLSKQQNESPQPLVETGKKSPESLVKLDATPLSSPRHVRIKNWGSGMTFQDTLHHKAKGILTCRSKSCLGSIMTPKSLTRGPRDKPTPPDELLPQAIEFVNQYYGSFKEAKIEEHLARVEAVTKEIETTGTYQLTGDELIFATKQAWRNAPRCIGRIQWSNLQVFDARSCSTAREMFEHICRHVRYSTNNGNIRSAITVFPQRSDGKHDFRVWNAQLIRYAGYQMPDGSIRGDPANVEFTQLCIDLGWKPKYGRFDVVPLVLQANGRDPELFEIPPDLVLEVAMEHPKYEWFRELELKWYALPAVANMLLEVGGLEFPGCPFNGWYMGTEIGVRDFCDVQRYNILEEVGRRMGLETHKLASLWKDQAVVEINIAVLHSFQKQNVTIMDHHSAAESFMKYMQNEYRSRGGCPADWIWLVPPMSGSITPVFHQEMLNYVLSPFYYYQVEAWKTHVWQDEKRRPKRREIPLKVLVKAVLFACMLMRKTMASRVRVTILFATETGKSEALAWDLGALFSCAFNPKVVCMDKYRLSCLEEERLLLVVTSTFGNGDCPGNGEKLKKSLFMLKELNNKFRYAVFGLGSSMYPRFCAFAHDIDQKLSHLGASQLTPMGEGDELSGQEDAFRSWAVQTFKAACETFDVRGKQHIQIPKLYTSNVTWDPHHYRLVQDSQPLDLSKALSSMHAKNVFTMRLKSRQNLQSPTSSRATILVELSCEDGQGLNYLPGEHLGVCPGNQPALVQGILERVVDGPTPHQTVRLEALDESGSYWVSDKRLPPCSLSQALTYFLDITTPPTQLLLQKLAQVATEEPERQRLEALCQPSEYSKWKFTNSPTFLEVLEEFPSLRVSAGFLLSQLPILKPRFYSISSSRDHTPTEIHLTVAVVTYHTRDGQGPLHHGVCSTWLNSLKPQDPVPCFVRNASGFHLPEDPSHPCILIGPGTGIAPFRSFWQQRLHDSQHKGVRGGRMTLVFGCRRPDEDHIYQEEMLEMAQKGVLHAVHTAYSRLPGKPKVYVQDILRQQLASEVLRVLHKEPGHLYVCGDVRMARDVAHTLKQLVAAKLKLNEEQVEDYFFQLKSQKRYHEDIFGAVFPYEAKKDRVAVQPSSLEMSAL
For the next assay, the system named is Rattus norvegicus. As to the kind of experiment: The compound was tested in vivo for suppressing LPS-stimulated plasma NOx production in rats. The format is functional.
For assay [5], the target named is T2, High affinity nerve growth factor receptor (Homo sapiens, UniProt P04629). The assay can be described thus: Inhibition of NGF-stimulated Trk A in PC12 cells. It is filed as cell-based, PC-12.
T2 sequence (P04629 whole entry): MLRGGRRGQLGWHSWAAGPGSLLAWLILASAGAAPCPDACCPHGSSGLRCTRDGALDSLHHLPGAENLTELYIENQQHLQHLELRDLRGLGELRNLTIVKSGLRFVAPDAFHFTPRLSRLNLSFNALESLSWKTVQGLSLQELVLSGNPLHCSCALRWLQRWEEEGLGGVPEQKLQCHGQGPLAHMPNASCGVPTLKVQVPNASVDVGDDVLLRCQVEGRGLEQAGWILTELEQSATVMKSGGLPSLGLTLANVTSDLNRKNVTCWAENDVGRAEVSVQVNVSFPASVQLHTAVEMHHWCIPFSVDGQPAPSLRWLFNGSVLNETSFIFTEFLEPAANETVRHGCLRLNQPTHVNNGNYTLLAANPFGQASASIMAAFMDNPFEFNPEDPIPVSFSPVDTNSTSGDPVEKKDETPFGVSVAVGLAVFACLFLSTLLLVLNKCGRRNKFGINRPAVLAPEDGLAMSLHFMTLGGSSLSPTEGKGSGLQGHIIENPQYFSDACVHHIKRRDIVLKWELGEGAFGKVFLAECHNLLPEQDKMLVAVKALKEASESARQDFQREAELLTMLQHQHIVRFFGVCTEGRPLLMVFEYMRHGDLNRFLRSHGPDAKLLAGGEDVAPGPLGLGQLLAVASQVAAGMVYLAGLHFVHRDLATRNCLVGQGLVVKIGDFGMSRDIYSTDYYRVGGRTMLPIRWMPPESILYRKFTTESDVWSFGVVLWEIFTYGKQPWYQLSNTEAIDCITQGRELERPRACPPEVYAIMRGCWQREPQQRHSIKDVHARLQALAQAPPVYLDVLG
The target of assay [6] is T2, High affinity nerve growth factor receptor. As to the kind of experiment: Inhibition of NGF-stimulated Trk A.
Assay [7] has as its target T3, Tumor necrosis factor receptor superfamily member 16 (Homo sapiens, UniProt P08138).
T3 sequence (P08138 whole entry): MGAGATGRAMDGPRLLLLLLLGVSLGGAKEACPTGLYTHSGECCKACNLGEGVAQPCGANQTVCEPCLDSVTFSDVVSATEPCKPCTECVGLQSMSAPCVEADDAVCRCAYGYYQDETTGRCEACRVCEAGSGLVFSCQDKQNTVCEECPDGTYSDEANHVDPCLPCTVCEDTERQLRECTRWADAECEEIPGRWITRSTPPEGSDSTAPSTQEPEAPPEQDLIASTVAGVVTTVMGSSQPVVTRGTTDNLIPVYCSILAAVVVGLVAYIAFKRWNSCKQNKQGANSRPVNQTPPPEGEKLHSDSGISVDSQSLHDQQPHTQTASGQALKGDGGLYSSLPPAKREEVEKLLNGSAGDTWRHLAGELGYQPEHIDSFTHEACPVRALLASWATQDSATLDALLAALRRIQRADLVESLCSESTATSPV
As to the kind of experiment: Competitive binding against Nerve growth factor to p75-NGF receptor in PC12 cells. It is filed as cell-based, PC-12.

Assay [8] in a line: Inhibition of thyroid-hormone induced bone resorption. The format is functional.
Assay [9] in a line: Selective inhibition of Src SH2 domain over ZAP-70 SH2 domain. The format is functional.
Assay [10] deals with T1, Proto-oncogene tyrosine-protein kinase Src. The assay can be described thus: Inhibition of binding to Src SH2 domain. It is filed as functional.
A further assay addresses Phosphodiesterase 1 (Homo sapiens, UniProt P54750+Q01064+Q14123). As to the kind of experiment: Inhibition of calmodulin-dependent PDE(3',5'-phosphodiesterase). The format is functional.
Another assay is filed under the species Homo sapiens. As to the kind of experiment: cells.
Assay [11] addresses T4, Growth factor receptor-bound protein 2 (Homo sapiens, UniProt P62993). As to the kind of experiment: Inhibition of c-Met interaction with Grb2 SH2 domain in Okajima (human gastric carcinoma) cells at 30 nM. It is filed as functional. The note with it: Stomach.
Target sequence in this assay (P62993 whole entry, looked up, the tested form may be a part): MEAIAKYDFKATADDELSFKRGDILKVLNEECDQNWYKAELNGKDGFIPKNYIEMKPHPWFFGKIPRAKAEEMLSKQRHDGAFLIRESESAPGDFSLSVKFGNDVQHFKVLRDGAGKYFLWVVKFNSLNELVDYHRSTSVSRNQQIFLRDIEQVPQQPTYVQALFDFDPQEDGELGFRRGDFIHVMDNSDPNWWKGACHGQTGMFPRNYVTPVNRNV
Assay [12] has as its target T4, Growth factor receptor-bound protein 2. The assay can be described thus: Inhibition of Growth factor receptor bound protein 2 SH2-domain binding.
Target sequence in this assay (P62993 whole entry, the tested form may be a part): as the sequence (P62993 whole entry, looked up, the tested form may be a part) above

Molecules are shown by their SMILES. Bounds are passed on as bounds.

T1 sequence (P12931 2-536 limits assumed): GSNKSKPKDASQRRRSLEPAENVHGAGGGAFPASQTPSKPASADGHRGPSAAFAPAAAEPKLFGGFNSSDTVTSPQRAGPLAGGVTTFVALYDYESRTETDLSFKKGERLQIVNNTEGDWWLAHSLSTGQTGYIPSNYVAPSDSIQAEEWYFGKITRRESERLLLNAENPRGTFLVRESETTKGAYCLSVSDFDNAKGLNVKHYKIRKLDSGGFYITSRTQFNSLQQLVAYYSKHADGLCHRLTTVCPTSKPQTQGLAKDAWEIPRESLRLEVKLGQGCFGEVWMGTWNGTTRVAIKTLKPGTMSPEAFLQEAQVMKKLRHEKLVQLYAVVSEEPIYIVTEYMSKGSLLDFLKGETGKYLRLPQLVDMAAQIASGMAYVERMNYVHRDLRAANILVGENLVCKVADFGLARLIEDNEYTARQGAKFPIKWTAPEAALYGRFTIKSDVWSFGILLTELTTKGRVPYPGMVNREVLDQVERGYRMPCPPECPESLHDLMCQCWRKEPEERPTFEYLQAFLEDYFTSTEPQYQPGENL

Regarding `CC(=O)NC(Cc1ccc(P(=O)(O)O)c(P(=O)(O)O)c1)C(=O)N[C@H]1CCCCc2cc(OCC3CCCCC3)c(C(N)=O)cc21` (stereo partly drawn), the IC50 in the assay filed under Oryctolagus cuniculus was 1600 nM; in assay [1] it was 300 nM.
Consider `CCCCCCOc1ccc(CCOc2cc(OCCCN)ccc2C(=O)NC(c2ccccc2)c2ccccc2)cc1`, for which the IC50 in assay [2] is less than 10000 nM.
As for `NCCc1ccc(OCCCN=C(N)N)cc1OCCc1ccccc1`, the IC50 in assay [2] is 770000 nM.
In turn, `CCCCCCOc1cccc(CCOc2cc(OCCCN)ccc2C(=O)NC2c3ccccc3-c3ccccc32)c1` yielded a half-maximal inhibitory concentration (IC50) in assay [2] of less than 10000 nM.
Consider `CCSCCCCC(c1ccc(O)cc1)C(C)(CC)c1ccc(O)cc1` (stereo not drawn), for which the half-inhibitory concentration (IC50) in [3] was approximately 9000 nM. The compound further showed a Cell death in the assay with HL-60 of more than 90%.
In turn, `Cc1ccc(-c2ccc3c(c2)C=C(C(=O)Nc2ccc(C[N+](C)(C)C4CCOCC4)cc2)CCC3)cc1` yielded an IC50 in the assay with CHO of 1.4 nM.
`COC(=O)N1CCN(c2ccnc(-n3ccnc3)n2)C(CC(=O)NCc2ccc3c(c2)OCO3)C1` (stereo not drawn) yielded an inhibition constant (Ki) in assay [4] of 2.2 nM. The compound further had a 50% effective dose (ED50) with Rattus norvegicus of 1.2 mg/kg. Also, in “Inhibitory activity”, it took 0.6 nM to reach half-maximal inhibition (IC50).
Regarding `O=C1c2cccc3cc([N+](=O)[O-])cc(c23)C(=O)N1NCCO`, the half-maximal inhibitory concentration (IC50) amounted to 3720 nM in assay [5], 5880 nM in [6] and 3720 nM in [7].
Turning to `O=C(CC1CNCCN1c1cc(Cl)nc(-n2ccnc2)n1)NCc1ccc2c(c1)OCO2` (stereo not drawn), in “Inhibitory activity”, it took 1.1 nM to reach half-maximal inhibition (IC50).
On to `CC(=O)NC(Cc1ccc(C(=O)O)c(C=O)c1)C(=O)N[C@H]1CCCCc2cc(OCC3CCCCC3)c(C(N)=O)cc21` (stereo partly drawn), for which the IC50 in assay [8] was found to be 42900 nM; in [9], 60000 nM; in assay [10], 5500 nM.
For the compound `CCc1cc(-c2ccc(OCC(=O)O)cc2C(C)C)ccc1-c1cccc(Cc2cccc3ccccc23)c1`, the 50% inhibitory concentration (IC50) at Phosphodiesterase 1 came out at 9 nM.
Same read-out and setting: the figure for `CCc1cc(-c2ccc(OCC(=O)O)cc2C(C)C)ccc1-c1cccc(Cc2ccc3ccccc3c2)c1` is 20 nM.
For the compound `CC(=O)N[C@@H](Cc1ccccc1)C(=O)N[C@H]1CCCNC(=O)[C@H](CCCN=C(N)N)NC(=O)[C@H](Cc2c[nH]c3ccccc23)NC(=O)[C@@H](CC2CCCCC2)NC(=O)[C@@H]2CCCN2C1=O`, inhibition in the assay listed under Homo sapiens was half-maximal at 20 nM (IC50).
The compound `NC(=O)C[C@H](NC(=O)C1(NC(=O)[C@H](Cc2ccc(C(C(=O)O)C(=O)O)cc2)NC(=O)C(=O)O)CCCCC1)C(=O)NCCCc1ccc2ccccc2c1` yielded a Blockade in [11] of 50%. The IC50 in assay [12] worked out at 50 nM.
